US20190085024A1, “Alpha-Ketoamide Inhibitors Of Cysteine Proteases” (Phelix Therapeutics, priority 2017, published 2019)
Where two headings read alike, the source gives them in different places.

What was measured:
[1] = molecular target: Cathepsin L (Homo sapiens, UniProt P07711); test: Cathepsin L enzyme assay; format: biochemical; conditions: Ki by Morrison equation; pH 5.5, substrate Z-Phe-Arg-Amc; read-out: Cat L
Source text: Two wells contained DMSO only for controls.
Velocity was converted to μM/sec.

[2] = molecular target: Cat S (Homo sapiens, UniProt P25774); test: Cat S inhibition; format: biochemical
Sequence of Cat S (P25774 115-331): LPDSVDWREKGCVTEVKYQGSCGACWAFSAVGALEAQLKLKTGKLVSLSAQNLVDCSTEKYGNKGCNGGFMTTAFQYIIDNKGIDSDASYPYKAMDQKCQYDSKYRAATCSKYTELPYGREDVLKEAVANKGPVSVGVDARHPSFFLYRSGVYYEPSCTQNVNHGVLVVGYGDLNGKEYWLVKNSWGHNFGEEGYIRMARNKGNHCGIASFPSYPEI

[3] = molecular target: T1, Cat K (Homo sapiens, UniProt P43235); test: Cat K inhibition; format: biochemical
T1 sequence (P43235 115-329): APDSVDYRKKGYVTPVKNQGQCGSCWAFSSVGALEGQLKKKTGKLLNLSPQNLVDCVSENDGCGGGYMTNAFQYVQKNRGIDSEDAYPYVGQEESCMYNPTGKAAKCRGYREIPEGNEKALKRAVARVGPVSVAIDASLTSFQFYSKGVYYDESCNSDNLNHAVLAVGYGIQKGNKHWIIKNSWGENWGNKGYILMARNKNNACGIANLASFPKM

[4] = molecular target: Calpain; test: Calpain enzyme assay; format: biochemical; conditions: Ki by Morrison equation; pH 7.5, 5 mM CaCl2
[5] = system: EBOV WT (Ebola Wild Type); test: microbe, parasite or virus in culture; format: cell-based; conditions: read-out: EBOV WT (μM) (Ebola Wild Type)
[6] = system: MERS WT; test: microbe, parasite or virus in culture; format: cell-based
[7] = system: MARV WT (Marburg Wild Type); test: organism not typed; format: cell-based; conditions: read-out: MARV WT (μM) (Marburg Wild Type)
[8] = molecular target: Cathepsin B (Homo sapiens, UniProt P07858); test: Cathepsin B enzyme assay; conditions: Cat B (μM), Ki by Morrison equation; pH 6.0, substrate Z-Phe-Arg-Amc
[9] = system: Collagen; test: Fibrosis-Sirius Red Collagen Assay; format: cell-based
[10] = system: SMA; test: Fibrosis-SMA Elisa; format: cell-based
[11] = Middle East respiratory syndrome-related coronavirus, read-out: MERS WT (μM)

Sequence of Cathepsin L (P07711 114-333, species assumed): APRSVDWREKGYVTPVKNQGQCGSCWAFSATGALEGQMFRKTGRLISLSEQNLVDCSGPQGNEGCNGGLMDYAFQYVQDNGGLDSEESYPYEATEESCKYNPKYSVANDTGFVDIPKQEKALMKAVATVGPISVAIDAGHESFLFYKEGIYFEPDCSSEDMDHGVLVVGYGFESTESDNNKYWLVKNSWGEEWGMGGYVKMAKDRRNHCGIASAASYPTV

Structure (SMILES)	Ki [1] [nM]	Ki [2] [nM]	Ki [3] [nM]	Ki [4] [nM]	IC50 ([5]; Zaire ebolavirus) [µM]	IC50 [6, 11] [µM]	IC50 [7] [µM]	Ki [8] [µM]	IC50 [5] [µM]	IC50 ([6]; read-out: MERS WT) [µM]	IC50 [9] [nM]	IC50 [10] [nM]
CC(C)CC(NC(=O)OCc1ccccc1)C(=O)NC(C)C(=O)C(=O)NCC(=O)NC(Cc1ccc2ccccc2c1)C(N)=O (stereo not drawn) [PHELIX184, benzyl (1-((4-((2-((1-amino-3-(naphthalen-2-yl)-1-oxopropan-2-yl)amino)-2-oxoethyl)amino)-3,4-dioxobutan-2-yl)amino)-4-methyl-1-oxopentan-2-yl)carbamate]	4.85	1	0.5	10.3	1.87	7.2	3.34	0.641				
CC(C)CC(NC(=O)OCc1ccccc1)C(=O)NC(C)C(=O)C(=O)N1CC(C(=O)NC(Cc2ccccc2)C(N)=O)C1 (stereo not drawn) [PHELIX187, benzyl (1-((4-(3-((1-amino-1-oxo-3-phenylpropan-2-yl)carbamoyl)azetidin-1-yl)-3,4-dioxobutan-2-yl)amino)-4-methyl-1-oxopentan-2-yl)carbamate]	53.6	2.04	3.8	45.5	3.66	56	13.5	0.0479				
CC[C@H](C)[C@H](NC(=O)C(=O)C(Cc1ccccc1)NC(=O)C(Cc1ccccc1)NC(=O)Cc1ccccc1)C(=O)N1CCCC1C(N)=O (stereo partly drawn) [PHELIX204, 1-((2-oxo-4-phenyl-3-(3-phenyl-2-(2-phenylacetamido)propanamido)butanoyl)isoleucyl)pyrrolidine-2-carboxamide]	0.01	0.44	9.3	204	0.13	1.8	0.42	0.277				
CC(NC(=O)C(Cc1ccc2ccccc2c1)NC(=O)Cc1ccccc1)C(=O)C(=O)NC(Cc1ccccc1)C(=O)NC(C)(C)C(N)=O (stereo not drawn) [PHELIX206, N-(1-((1-amino-2-methyl-1-oxopropan-2-yl)amino)-1-oxo-3-phenylpropan-2-yl)-3-(3-(naphthalen-2-yl)-2-(2-phenylacetamido)propanamido)-2-oxobutanamide]	6.52	3.96	> 10000	> 10000	2.51	12.6	4.68	0.12				
CC(NC(=O)C(Cc1ccccc1)NC(=O)Cc1ccccc1)C(=O)C(=O)NC(Cc1ccccc1)C(=O)NC(Cc1ccc2ccccc2c1)C(N)=O (stereo not drawn) [PHELIX215, N-(1-((1-amino-3-(naphthalen-2-yl)-1-oxopropan-2-yl)amino)-1-oxo-3-phenylpropan-2-yl)-2-oxo-3-(3-phenyl-2-(2-phenylacetamido)propanamido)butanamide]	0.18	0.48	22.2	> 10000			0.16	9.24	0.02	0.99		
CCC(C)C(NC(=O)C(CC(C)C)NC(=O)OCc1ccccc1)C(=O)C(=O)N1CC(C(=O)NC(Cc2ccc3ccccc3c2)C(N)=O)C1 (stereo not drawn) [PHELIX297, benzyl (1-((1-(3-((1-amino-3-(naphthalen-2-yl)-1-oxopropan-2-yl)carbamoyl)azetidin-1-yl)-4-methyl-1,2-dioxohexan-3-yl)amino)-4-methyl-1-oxopentan-2-yl)carbamate]	42.4			39.9				0.235			3800	3400
CCC(C)C(NC(=O)C(CC(C)C)NC(=O)OCc1ccccc1)C(=O)C(=O)NC(Cc1ccc2ccccc2c1)C(N)=O (stereo not drawn) [PHELIX309, benzyl (1-((1-((1-amino-3-(naphthalen-2-yl)-1-oxopropan-2-yl)amino)-4-methyl-1,2-dioxohexan-3-yl)amino)-4-methyl-1-oxopentan-2-yl)carbamate]	9.76			1.34				> 10			2700	2000
CCC(C)C(NC(=O)C(CC(C)C)NC(=O)CN1CCOCC1)C(=O)C(=O)NCC(=O)NC(Cc1ccc2ccccc2c1)C(N)=O (stereo not drawn) [PHELIX314, N-(2-((1-amino-3-(naphthalen-2-yl)-1-oxopropan-2-yl)amino)-2-oxoethyl)-4-methyl-3-(4-methyl-2-(2-morpholinoacetamido)pentanamido)-2-oxohexanamide]	3.06			2.44				0.387				1200
